Among the data in patent publication US12528784B2, “Alkynyl-(heteroaryl)-carboxamide HCN1 inhibitors” (Hoffmann-La Roche Inc., priority 2019, dated 2026) are IC50 values, retold here.

Molecules are shown by their SMILES. Some results are limits rather than exact numbers.

Holding throughout (assay type): cell-based
One test concerns the target T1, HCN1 (Homo sapiens, UniProt O60741).
T1 construct: expressed in transfected cells
T1 sequence (O60741 1-890): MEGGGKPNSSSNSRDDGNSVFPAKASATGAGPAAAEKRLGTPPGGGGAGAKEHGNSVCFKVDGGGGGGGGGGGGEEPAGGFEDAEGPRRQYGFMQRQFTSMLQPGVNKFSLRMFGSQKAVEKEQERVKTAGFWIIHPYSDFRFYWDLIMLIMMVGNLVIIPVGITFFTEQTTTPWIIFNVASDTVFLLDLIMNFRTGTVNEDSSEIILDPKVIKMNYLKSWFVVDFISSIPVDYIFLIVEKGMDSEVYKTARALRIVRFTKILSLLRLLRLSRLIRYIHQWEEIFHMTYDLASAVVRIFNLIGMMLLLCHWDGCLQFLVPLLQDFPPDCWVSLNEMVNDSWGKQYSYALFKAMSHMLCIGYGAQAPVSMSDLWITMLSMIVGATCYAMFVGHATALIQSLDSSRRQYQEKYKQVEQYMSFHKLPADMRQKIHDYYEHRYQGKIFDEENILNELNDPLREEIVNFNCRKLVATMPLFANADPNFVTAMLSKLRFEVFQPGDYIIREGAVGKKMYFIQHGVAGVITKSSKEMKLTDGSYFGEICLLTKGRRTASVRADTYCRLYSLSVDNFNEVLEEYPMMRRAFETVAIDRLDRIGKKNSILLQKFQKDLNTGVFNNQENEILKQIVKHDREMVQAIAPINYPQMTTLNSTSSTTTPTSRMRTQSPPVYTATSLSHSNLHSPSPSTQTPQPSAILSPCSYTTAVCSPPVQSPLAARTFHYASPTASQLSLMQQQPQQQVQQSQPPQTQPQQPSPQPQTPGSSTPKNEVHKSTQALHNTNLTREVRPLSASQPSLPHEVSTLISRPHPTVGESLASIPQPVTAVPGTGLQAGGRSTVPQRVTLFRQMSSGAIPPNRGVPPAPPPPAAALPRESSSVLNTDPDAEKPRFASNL
Kind of test: HCN1 automated patch clamp current inhibition assay (Ionworks Barracuda). As to conditions: HEK-293 cells stably expressing HCN1; current inhibition during a hyperpolarizing pulse of -100 mV. As to the method:
(§1) In vitro, high-throughput cellular electrophysiology was employed to detect voltage- and use-dependence of compounds in single concentration screening and IC50 determination for library and medicinal chemistry profiling compounds in 384 well plates.
(§2) Cell cultures were maintained in DMEM/F12 cell growth media containing FBS and appropriate antibiotics at 37° C., 5% CO2 for a maximum of 20 passages. At a time point of 40-72 hours prior to assay, the expression of HCN protein in the cells is induced by addition of tetracyclin. Cells may be incubated at 27° C. for 2-24 hours of induction. […] Cells were harvested at 80% confluency and resuspended in extracellular buffer and added to wells. A freshly prepared Escin solution was added to intracellular buffer and applied to establish whole cell recording via perforated patch clampling by APC.
(§3) Currents through activated channels were measured directly by APC by employing hyperpolarizing voltage steps. The activation window was increased and stabilized by the addition of cell permeable Br-cAMP. Baselines were established for both use- and voltage-dependence protocols using a −30 mV holding potential and multiple test pulses at −100 mV or by 20 mV steps from −120 to 0 mV, respectively. Test compounds were added after baseline recordings followed by a 10 min incubation, voltage-dependency protocol recording, and use-dependency recording. Data was corrected for baseline and rundown (well based) and normalized for % inhibition (plate based). Five previously reported HCN inhibitors of varying potencies and selectivities and zatebradine were used for run to run and plate to plate quality controls. […] Percent inhibition was analysed at −80, −100, −120 mV of the voltage-dependency protocol and at pulse 0 and 50 of the use-dependency protocols. Selectivity was assessed against HCN2, HCN3, and HCN4 overexpressing cell lines using similar methods. As HCN4 has a slower activation than the other HCN channels, activation was extended to achieve steady state activation.
A general note: The patch-clamp technique gives a direct electrical read-out from membranes.

For the next test, the target named is T2, HCN3 (Homo sapiens, UniProt Q9P1Z3).
T2 construct: expressed in transfected cells
T2 sequence (Q9P1Z3 1-774): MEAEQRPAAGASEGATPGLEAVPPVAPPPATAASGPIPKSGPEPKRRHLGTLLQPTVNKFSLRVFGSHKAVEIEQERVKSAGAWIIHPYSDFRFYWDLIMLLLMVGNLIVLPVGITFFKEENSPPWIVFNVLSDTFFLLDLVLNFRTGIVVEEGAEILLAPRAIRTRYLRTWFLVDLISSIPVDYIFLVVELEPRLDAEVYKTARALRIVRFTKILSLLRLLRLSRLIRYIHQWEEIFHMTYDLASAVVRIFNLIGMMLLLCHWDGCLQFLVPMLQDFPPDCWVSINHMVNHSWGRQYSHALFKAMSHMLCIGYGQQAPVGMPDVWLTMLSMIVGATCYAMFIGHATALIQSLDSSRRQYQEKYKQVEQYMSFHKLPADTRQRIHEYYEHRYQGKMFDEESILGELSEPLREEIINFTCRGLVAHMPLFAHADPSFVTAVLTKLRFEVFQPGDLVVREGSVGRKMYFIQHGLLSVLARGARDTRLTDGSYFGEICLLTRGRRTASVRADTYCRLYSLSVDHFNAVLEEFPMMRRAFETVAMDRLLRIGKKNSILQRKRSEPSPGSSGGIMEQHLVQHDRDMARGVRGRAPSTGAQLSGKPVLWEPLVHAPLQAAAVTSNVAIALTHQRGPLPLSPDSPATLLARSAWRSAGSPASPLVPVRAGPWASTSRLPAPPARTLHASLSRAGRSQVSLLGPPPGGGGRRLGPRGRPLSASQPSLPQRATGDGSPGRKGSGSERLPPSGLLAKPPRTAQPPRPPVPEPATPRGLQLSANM
The test is described as follows: HCN3 automated patch clamp current inhibition assay (Ionworks Barracuda). Particulars: HEK-293 cells stably expressing HCN3; current inhibition during a hyperpolarizing pulse of -100 mV. As for the experimental part:
as §1, §2, §3

In the next test the target is T3, HCN4 (Homo sapiens, UniProt Q9Y3Q4).
T3 construct: expressed in transfected cells
T3 sequence (Q9Y3Q4 1-1203): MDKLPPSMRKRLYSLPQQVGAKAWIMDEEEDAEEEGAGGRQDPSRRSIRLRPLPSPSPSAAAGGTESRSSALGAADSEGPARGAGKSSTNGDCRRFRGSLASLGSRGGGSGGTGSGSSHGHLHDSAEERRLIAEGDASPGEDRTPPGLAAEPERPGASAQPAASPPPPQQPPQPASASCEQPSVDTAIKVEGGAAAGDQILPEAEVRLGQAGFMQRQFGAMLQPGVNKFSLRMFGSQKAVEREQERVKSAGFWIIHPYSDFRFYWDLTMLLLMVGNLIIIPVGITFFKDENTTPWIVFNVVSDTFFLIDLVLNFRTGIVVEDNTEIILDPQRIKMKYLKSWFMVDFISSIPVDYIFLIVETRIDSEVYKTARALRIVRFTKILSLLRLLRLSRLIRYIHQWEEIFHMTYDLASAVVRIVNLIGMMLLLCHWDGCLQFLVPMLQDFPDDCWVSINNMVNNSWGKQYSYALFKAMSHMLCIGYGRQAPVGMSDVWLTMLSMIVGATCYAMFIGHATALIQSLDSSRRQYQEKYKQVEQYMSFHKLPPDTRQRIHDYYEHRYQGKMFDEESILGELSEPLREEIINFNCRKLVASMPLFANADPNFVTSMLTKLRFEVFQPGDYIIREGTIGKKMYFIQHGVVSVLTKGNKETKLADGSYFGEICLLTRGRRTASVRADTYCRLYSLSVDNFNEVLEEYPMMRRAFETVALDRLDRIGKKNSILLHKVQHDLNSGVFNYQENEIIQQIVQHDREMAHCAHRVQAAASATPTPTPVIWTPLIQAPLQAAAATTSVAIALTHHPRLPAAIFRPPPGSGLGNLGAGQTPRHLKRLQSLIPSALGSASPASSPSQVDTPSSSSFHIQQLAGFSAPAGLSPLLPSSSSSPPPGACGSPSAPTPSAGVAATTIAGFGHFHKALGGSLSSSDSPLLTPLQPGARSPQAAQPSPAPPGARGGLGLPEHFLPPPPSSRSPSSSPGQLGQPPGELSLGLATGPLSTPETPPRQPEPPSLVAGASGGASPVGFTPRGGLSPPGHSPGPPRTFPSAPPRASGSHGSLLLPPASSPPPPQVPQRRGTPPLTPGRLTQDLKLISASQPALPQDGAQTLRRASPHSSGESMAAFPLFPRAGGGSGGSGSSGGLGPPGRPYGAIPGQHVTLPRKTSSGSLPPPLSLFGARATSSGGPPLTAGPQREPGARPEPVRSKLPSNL
The test is described as follows: HCN4 automated patch clamp current inhibition assay (Ionworks Barracuda). Particulars: HEK-293 cells stably expressing HCN4; current inhibition during a hyperpolarizing pulse of -100 mV. As to the method: as §1, §2, §3

What is called IC50 is the concentration needed to halve the response being measured. The low end stands for greater potency in that assay, the high end for weaker potency in that assay. On to `Cc1ccc(-c2c(C(N)=O)nc(C#Cc3cccc(Cl)c3)n2C)cn1` [Example 34, 2-[2-(3-Chlorophenyl)ethynyl]-1-methyl-5-(6-methyl-3-pyridyl)imidazole-4-carboxamide], for which the IC50 against HCN1 is 0.099 µM; against HCN3, 4.9 µM; on HCN4 it was over 40 µM.
`Cc1ccc(-c2c(C(N)=O)nc(C#Cc3cccc(Cl)c3C)n2C)cn1` [Example 44, 2-[2-(3-Chloro-2-methyl-phenyl)ethynyl]-1-methyl-5-(6-methyl-3-pyridyl)imidazole-4-carboxamide]: the values for the IC50 against HCN1, against HCN3 and on HCN4 were 0.229 µM, over 40 µM and over 40 µM, respectively.
